System: VEGF-induced pVEGFR
Test: Western blot of VEGF-induced VEGFR phosphorylation in HUVECs
Assay type: cell-based, human
Conditions: VEGF 40 ng/mL
Procedure: EA.hy926 cells or HUVECs were seeded in 6-well plates and starved in a serum-free medium for 4 h after reaching 80% confluence. The compounds were added 30 min prior to stimulation with the corresponding ligands. EA.hy926 cells were incubated with BMP9 (1 ng/mL), BMP6 (50 ng/mL), TGF-β2 (1 ng/mL), or vehicle control for 1 h. For HUVECs, after 4 h starvation, the cells were pre-treated with or without the indicated compounds for 30 min and subsequently stimulated with VEGF (40 ng/mL) for 10 min. The cells were harvested and lysed in radioimmunoprecipitation assay (RIPA) lysis buffer containing 1× complete protease inhibitor cocktail (11836153001, Roche, Basel, Switzerland). The protein concentration was determined using the DC protein assay kit (5000111, Bio-Rad). After adding loading buffer, the samples were boiled and proteins separated by sodium dodecyl sulfate polyacrylamide gel electrophoresis (SDS-PAGE). […] The protein bands were quantified using ImageJ (National Institutes of Health, Bethesda, MD, USA).

CN1CCC(=O)NCCNc2ccn3ncc(c3n2)-c2cccc(c2)C1 [OD29]
effect on VEGF-induced pVEGFR: did not affect
